US20090163528A1, “Pharmaceutical composition having analgesic effects” (priority 2004, published 2009)
Read-outs that look alike come from different tables or passages of the source.

How the values were obtained:
Kunming breed mice [1] = test: Body twisting test, mixtures of fuziline, benzoylmesaconitine, mesaconitine and hypaconitine in different proportions (Test 4); type: in vivo; conditions: aspirin 200 mg/kg stomach perfusion
Method: Enteric coated aspirin tablet, white, 25 mg/pill, supplied by Xuzhou Enhua Pharmaceuticals Co., Ltd, batch No.: 20050312; take 4 pills of enteric coated aspirin tablet; grind and add with distilled water up to 10 ml to compound 10 mg/ml of solution composed of aspirin;
Divide at random the 70 Kunming breed mice, weighing 18-22 g, into 7 groups with equal number of each gender and each group, with the first group as the negative control group and the second group as the positive control group; perfuse the stomach of the first group mice with 0.2 ml/10 g of 10% alcohol; perfuse the stomach of the second group mice with 200 mg/kg (20 times the practice dose) of aspirin; the 3rd, 4th, 5th, 6th and 7th group are groups in five different proportions of […], benzoylmesaconitine, mesaconitine and hypaconitine; perfuse the groups with solution in five different proportions of […], benzoylmesaconitine, mesaconitine and hypaconitine; […]; inject into the stomach cavity of the mice with 0.2 ml of 0.6% glacial acetic acid 30 minutes after administration; observe the number of body twisting of each mouse 5 to 10 minutes after the injection of acetic acid; make statistical analysis of the data to calculate the increasing rate of pain threshold and the standard deviation of each group; compare the intergroup differences between each drug group and the negative control group with t-test.

Kunming breed mice [2] = test: Body twisting test, skin administration of fuziline (Test 9); type: in vivo; conditions: 200 mg/kg ig.; acetic acid 30 minutes after
Method: Divide randomly the 40 Kunming breed mice, weighing 18-22 g, into 4 groups with equal number of each gender and each group. […] The first group is the negative control group. Smear an even layer of Vaseline plaster 0.1 g/piece onto the hair-disposed area of the of negative control group mice, covered lightly with a piece of gauze (1.5 cm×1.5 cm). The second group, as the positive control group is given stomach perfusion with 200 mg/kg of aspirin (20 times the practice use). […] Except that the mice of the second group are injected into the stomach cavity with 0.6% glacial acetic acid solution 30 minutes after the smearing, the mice of all other groups are injected into the stomach cavity with 0.6% glacial acetic acid solution 1.5 hours after the smearing; observe the number of body twisting of each mouse 5 to 10 minutes after the injection; make statistical analysis of the data to calculate the increasing rate of pain threshold and the standard deviation of each group; compare the intergroup differences between each drug group and the negative control group with t-test.

Kunming breed mice [3] = test: Body twisting test, mixtures of fuziline and hypaconitine in different proportions (Test 6); type: in vivo
Kunming breed mice [4] = test: Body twisting test, mixtures of fuziline and benzoylmesaconitine in different proportions (Test 7); type: in vivo
Kunming breed mice [5] = type: in vivo
Kunming breed mice [6] = type: in vivo; conditions: aspirin 200 mg/kg stomach perfusion
Kunming breed mice [7] = test: Body twisting test, intramuscular injection of fuziline (Test 8); type: in vivo; conditions: 200 mg/kg ig.
mice [8] = test: Toxicity test of the active medical ingredients (previous acute toxicology); conditions: mouse, in vivo
[9] = as above; conditions: mouse, in vivo
mice [10] = type: in vivo; conditions: Table 5
From the text: The division of animal groups, content of test drugs, dose and administration is the same as those in the body twisting test, while the contra positive is pethidine hydrochloride only.
In the course of the test, the mice show up reactions of hindleg sucking, hindleg kicking, skipping, etc; take the reaction of hindleg sucking as the pain indicator.

[11] = aspirin 200 mg/kg stomach perfusion
[12] = Table 2, 200 mg/kg stomach perfusion
[13] = Table 3, 200 mg/kg stomach perfusion
[14] = Table 3, 0.5 mg/kg stomach perfusion
[15] = Table 3, 1 mg/kg stomach perfusion
[16] = Table 3, 2 mg/kg stomach perfusion
[17] = Table 3, 4 mg/kg stomach perfusion
[18] = Table 3, 50 mg/kg stomach perfusion
[19] = Table 3, 100 mg/kg stomach perfusion
[20] = Table 3, 400 mg/kg stomach perfusion

CC(=O)Oc1ccccc1C(=O)O [Aspirin, aspirin]
Body twisting number ( x ± SD) (Kunming breed mice [1]): 3.3 ± 3.2 | Pain suppression rate (Kunming breed mice [1]): 88.0% | Body twisting number ( x ± SD) (Kunming breed mice [2]): 5.1 ± 6.0 | Pain suppression rate (Kunming breed mice [2]): 81.6% | Body twisting number ( x ± SD) (Kunming breed mice [3]; [11]): 3.1 ± 3.3 | Pain suppression rate (Kunming breed mice [3]; [11]): 82.7% | Body twisting number ( x ± SD) (Kunming breed mice [4]; [11]): 3.1 ± 3.3 | Pain suppression rate (Kunming breed mice [4]; [11]): 82.7% | Body twisting number ( χ ± SD) (Kunming breed mice [5]; [12]): 3.1 ± 3.3 | Pain suppression rate (Kunming breed mice [5]; [12]): 90.96% | Body twisting number ( χ ± SD) (Kunming breed mice [5]; [13]): 3.1 ± 3.2 | Pain suppression rate (Kunming breed mice [5]; [13]): 92.11% | Body twisting number ( x ± SD) (Kunming breed mice [6]): 3.0 ± 3.3 | Pain suppression rate (Kunming breed mice [6]): 82.7% | Body twisting number ( x ± SD) (Kunming breed mice [7]): 5.1 ± 6.0 | Pain suppression rate (Kunming breed mice [7]): 81.6%

COC[C@@]12CCC(OC)C34C5C[C@@]6(O)C(OC(=O)c7ccccc7)C5[C@@](OC(C)=O)(C(C(OC)C31)[C@@H]4N(C)C2)[C@@H](O)C6OC (stereo partly drawn) [Hypaconitine, hypaconitine]
dose with no mice dead (mice [8]): 8.19 mg/kg | LD50 ([9]; 8.19 mg/kg, 95% of the confidence interval of LD50): 10.9 to 15 mg/kg | LD50 ([9]; 8.19 mg/kg, LD50, previous acute toxicology): 12.8 mg/kg | LD50 ([9]; LD50): 12.8 mg/kg | Increasing rate of threshold pain after administration ( X ± SD) (mice [10]; 1 mg/kg stomach perfusion, 15 minutes): −16.6 ± 31.9% | Increasing rate of threshold pain after administration ( X ± SD) (mice [10]; 1 mg/kg stomach perfusion, 30 minutes): −31.9 ± 24.2% | Increasing rate of threshold pain after administration ( X ± SD) (mice [10]; 1 mg/kg stomach perfusion, 60 minutes): −18.1 ± 34.5% | Increasing rate of threshold pain after administration ( X ± SD) (mice [10]; 1 mg/kg stomach perfusion, 90 minutes): −13.0 ± 14.9% | Increasing rate of threshold pain after administration ( X ± SD) (mice [10]; 1 mg/kg stomach perfusion, 120 minutes): 28.3 ± 56.3% | Increasing rate of threshold pain after administration ( X ± SD) (mice [10]; 2 mg/kg stomach perfusion, 15 minutes): 72.4 ± 57.6 % | Increasing rate of threshold pain after administration ( X ± SD) (mice [10]; 2 mg/kg stomach perfusion, 30 minutes): 36.0 ± 53.4% | Increasing rate of threshold pain after administration ( X ± SD) (mice [10]; 2 mg/kg stomach perfusion, 60 minutes): 17.3 ± 56.1% | Increasing rate of threshold pain after administration ( X ± SD) (mice [10]; 2 mg/kg stomach perfusion, 90 minutes): 15.3 ± 60.1% | Increasing rate of threshold pain after administration ( X ± SD) (mice [10]; 2 mg/kg stomach perfusion, 120 minutes): −13.0 ± 33.1% | Increasing rate of threshold pain after administration ( X ± SD) (mice [10]; 4 mg/kg stomach perfusion, 15 minutes): 142.7 ± 139.4 % | Increasing rate of threshold pain after administration ( X ± SD) (mice [10]; 4 mg/kg stomach perfusion, 30 minutes): 104.1 ± 137.4 % | Increasing rate of threshold pain after administration ( X ± SD) (mice [10]; 4 mg/kg stomach perfusion, 60 minutes): 81.7 ± 100.0 % | Increasing rate of threshold pain after administration ( X ± SD) (mice [10]; 4 mg/kg stomach perfusion, 90 minutes): 34.4 ± 59.3 % | Increasing rate of threshold pain after administration ( X ± SD) (mice [10]; 4 mg/kg stomach perfusion, 120 minutes): 59.1 ± 55.6 % | Pain suppression rate (Kunming breed mice [3]; hypaconitine 1 mg/kg stomach perfusion): 48.0% | Body twisting number ( χ ± SD) (Kunming breed mice [5]; [14]): 27.6 ± 11.5 | Pain suppression rate (Kunming breed mice [5]; [14]): 29.77% | Body twisting number ( χ ± SD) (Kunming breed mice [5]; [15]): 24.5 ± 9.8 | Pain suppression rate (Kunming breed mice [5]; [15]): 37.66% | Body twisting number ( χ ± SD) (Kunming breed mice [5]; [16]): 23.6 ± 10.9 | Pain suppression rate (Kunming breed mice [5]; [16]): 39.95% | Body twisting number ( χ ± SD) (Kunming breed mice [5]; [17]): 2.8 ± 4.5 | Pain suppression rate (Kunming breed mice [5]; [17]): 92.88%

COC[C@]12CN(C)[C@H]3C4C(OC)C1C3(C(OC)CC2O)C1C[C@@]2(O)C(OC(=O)c3ccccc3)C1[C@]4(O)[C@@H](O)C2OC (stereo partly drawn) [Benzoylmesaconitine, benzoylmesaconitine]
maximum tolerance dose (mice [8]): 1000 mg/kg | Increasing rate of threshold pain after administration ( X ± SD) (mice [10]; 200 mg/kg stomach perfusion, 15 minutes): 22.1 ± 52.0% | Increasing rate of threshold pain after administration ( X ± SD) (mice [10]; 200 mg/kg stomach perfusion, 30 minutes): 32.9 ± 45.1 % | Increasing rate of threshold pain after administration ( X ± SD) (mice [10]; 200 mg/kg stomach perfusion, 60 minutes): 40.3 ± 76.4% | Increasing rate of threshold pain after administration ( X ± SD) (mice [10]; 200 mg/kg stomach perfusion, 90 minutes): 46.0 ± 87.4% | Increasing rate of threshold pain after administration ( X ± SD) (mice [10]; 200 mg/kg stomach perfusion, 120 minutes): 53.6 ± 93.9% | Increasing rate of threshold pain after administration ( X ± SD) (mice [10]; 400 mg/kg stomach perfusion, 15 minutes): 41.3 ± 90.2% | Increasing rate of threshold pain after administration ( X ± SD) (mice [10]; 400 mg/kg stomach perfusion, 30 minutes): 35.2 ± 57.2 % | Increasing rate of threshold pain after administration ( X ± SD) (mice [10]; 400 mg/kg stomach perfusion, 60 minutes): 78.8 ± 104.0 % | Increasing rate of threshold pain after administration ( X ± SD) (mice [10]; 400 mg/kg stomach perfusion, 90 minutes): 59.5 ± 88.5% | Increasing rate of threshold pain after administration ( X ± SD) (mice [10]; 400 mg/kg stomach perfusion, 120 minutes): 53.7 ± 117.0% | Increasing rate of threshold pain after administration ( X ± SD) (mice [10]; benzoylmesaconitine 100 mg/kg stomach perfusion, 15 minutes): −0.4 ± 33.8% | Increasing rate of threshold pain after administration ( X ± SD) (mice [10]; benzoylmesaconitine 100 mg/kg stomach perfusion, 30 minutes): 13.7 ± 52.3% | Increasing rate of threshold pain after administration ( X ± SD) (mice [10]; benzoylmesaconitine 100 mg/kg stomach perfusion, 60 minutes): 64.6 ± 76.7 % | Increasing rate of threshold pain after administration ( X ± SD) (mice [10]; benzoylmesaconitine 100 mg/kg stomach perfusion, 90 minutes): 71.1 ± 104.5% | Increasing rate of threshold pain after administration ( X ± SD) (mice [10]; benzoylmesaconitine 100 mg/kg stomach perfusion, 120 minutes): 106.2 ± 116.5% | Pain suppression rate (Kunming breed mice [4]; benzoylmesaconitine 100 mg/kg stomach perfusion): 34.6% | Body twisting number ( χ ± SD) (Kunming breed mice [5]; [18]): 27.2 ± 12.2 | Pain suppression rate (Kunming breed mice [5]; [18]): 20.70% | Body twisting number ( χ ± SD) (Kunming breed mice [5]; [19]): 27.4 ± 15.9 | Pain suppression rate (Kunming breed mice [5]; [19]): 20.12% | Body twisting number ( χ ± SD) (Kunming breed mice [5]; [13]): 21.0 ± 15.1 | Pain suppression rate (Kunming breed mice [5]; [13]): 38.78% | Body twisting number ( χ ± SD) (Kunming breed mice [5]; [20]): 20.4 ± 12.9 | Pain suppression rate (Kunming breed mice [5]; [20]): 40.52%
